The source of these data is patent US20110071204A1, “PERCUTANEOUS ABSORPTION PREPARATION” (KYORIN PHARMACEUTICAL CO., LTD., priority 2005, published 2011).

The subject of data set [1] is airway contraction induced by methacholine. Put plainly: Airway contraction measuring method (Konzett & Rossler), methacholine-induced. The format is in vivo. The following applies: guinea pig. On the procedure:
Male Std:Hartley guinea pigs (Japan SLC Inc., week of age at the time of use: 6 weeks of age, from 340.6 to 488.0 g in body weight) were anesthetized with urethane, and a canula was inserted into the trachea. The trachea canula was connected to a quantitative artificial ventilator, and under artificial respiration, a catheter was indwelled in the left jugular vein. Measurement of the airway contraction was carried out by the Konzett & Rossler method. Guinea pigs were subjected to artificial respiration at a ventilation of 4 ml/animal and a ventilation frequency of 70 times/minute. Changes in the ventilation pressure were measured by a transducer (UGO BASILE, BRONCHOSPASM TRANSDUCER 7020) connected to the sub-bypass of the trachea canula. By inserting a catheter into the jugular vein, imidafenacin was administered by continuous intravenous infusion (100 μl/kg/min). After 75 minutes of the start of administration of the agent liquid, methacholine (10 μg/kg) was intravenously administered to induce airway contraction. The airway contraction inhibitory activity was evaluated using peak height of the airway contraction induced by methacholine as the index.
In this connection, the blood concentration measurement was carried out by LC/MS/MS using blood plasma.

In data set [2] the test system is bladder contraction induced by methacholine. Format: in vivo. The following applies: guinea pig. The source says:
Male Std:Hartley guinea pigs (Japan SLC Inc., week of age at the time of use: 6 weeks of age, from 340.6 to 488.0 g in body weight) were anesthetized with urethane. The abdominal region was subjected to median incision, and then both sides of ureters were ligated in order to prevent inflow of urine from the kidney to the bladder. After ligation of the bladder cervix, a catheter for intravesical pressure measurement use was inserted from the bladder apex and fixed by ligation. Thereafter, in order to measure intravesical pressure, 1 ml of physiological saline was injected into the bladder. Next, a catheter was indwelled in the left jugular vein. The intravesical pressure was measured via an amplifier for strain pressure use (Nihon Kohden Corporation, CARRIER ANPLIFIER AP-601G) by connecting the catheter for intravesical pressure measuring use to a pressure transducer (Nihon Kohden Corporation, LIFE KIT DX-100). By inserting a catheter into the jugular vein, imidafenacin was administered by continuous intravenous infusion (100 μl/kg/min). After 75 minutes of the commencement of administration of the agent liquid, methacholine (10 μg/kg) was intravenously administered to induce bladder contraction. The bladder contraction inhibitory activity was evaluated using peak height of the bladder contraction induced by methacholine as the index. […]

Setting [3] is: continuous intravenous infusion, methacholine 10 μg/kg after 75 minutes.

For the compound `Cc1nccn1CCC(C(N)=O)(c1ccccc1)c1ccccc1` [imidafenacin, 4-(2-methyl-1-imidazolyl)-2,2-diphenylbutylamide], in data set [1] (setting [3]), the “ID50, airway contraction inhibitory activity” value turned out to be 0.061 µg/kg/min. The “blood concentration at around the ID50 value (airway contraction)” value in data set [1] (plasma, LC/MS/MS) is on record as “about 1 ng/ml”. Further, in data set [2] (setting [3]), the “ID50, bladder contraction inhibitory activity” value worked out at 0.064 µg/kg/min. Further, the “blood concentration at around the ID50 value (intravesical pressure)” value in data set [2] (male, Hartley, in vivo) was “about 1 ng/ml”.
